Laboratory results from EPA's ToxRefDB 2.

What was measured:
rat [1] = settings: Prenatal developmental toxicity study, wistar, Oral, Gavage/Intubation, dose end: 16 GD
rabbit [2] = settings: Prenatal developmental toxicity study, himalayan, Oral, Gavage/Intubation, dose end: 18 GD
rat [3] = settings: Subchronic oral toxicity in rodents, sprague dawley, Feed, dose end: 13 week
rat [4] = settings: Prenatal developmental toxicity study, sprague dawley, Oral, Gavage/Intubation, dose end: 16 GD
rabbit [5] = settings: Prenatal developmental toxicity study, new zealand white, Oral, Gavage/Intubation, dose end: 19 GD
rat [6] = settings: Multigenerational reproductive toxicity study, other, Oral, Feed, dose end: 2 generation
rat [7] = settings: Prenatal developmental toxicity study, sprague dawley, Oral, Gavage/Intubation, dose end: 15 GD
rat [8] = settings: Prenatal developmental toxicity study, sprague dawley, Inhalation, Whole-Body, dose end: 20 GD
[9] = group: developmental, developmental / developmental malformation / bone / bent
[10] = group: maternal, systemic / in life observation / body weight / body weight + systemic / in life observation / body weight / body weight gain + systemic / in…
[11] = group: developmental, developmental / developmental malformation / bone / [other] + developmental / developmental malformation / bone / fragmented + developmental…
[12] = group: maternal, systemic / in life observation / mortality / mortality + systemic / in life observation / clinical signs / [other] + systemic / in life …
[13] = group: maternal, reproductive / reproductive performance / estrous cycle / length
[14] = group: systemic, systemic / clinical chemistry / calcium / calcium + systemic / clinical chemistry / globulins / globulins + systemic / clinical chemistry / …
[15] = group: developmental, developmental / developmental malformation / bone / incomplete ossification + developmental / developmental malformation / bone / unossified…
[16] = group: maternal, systemic / in life observation / body weight / body weight gain
[17] = group: maternal, systemic / in life observation / body weight / body weight gain + reproductive / reproductive performance / postimplantation loss / …
[18] = group: developmental, developmental / developmental malformation / brain / hydrocephaly + developmental / developmental malformation / bone / domed head
[19] = group: maternal, reproductive / reproductive performance / postimplantation loss / postimplantation loss + reproductive / reproductive performance / …
[20] = group: parental, systemic / in life observation / body weight / body weight + systemic / in life observation / body weight / body weight gain
[21] = group: reproductive, reproductive / reproductive performance / fertility / fertility + reproductive / reproductive performance / precoital interval / precoital …
[22] = group: developmental, developmental / developmental malformation / bone / fragmented + developmental / developmental malformation / bone / unossified + …
[23] = group: maternal, systemic / in life observation / body weight / body weight gain + systemic / in life observation / mortality / mortality + systemic / …
[24] = group: developmental, systemic / in life observation / body weight / fetal weight
[25] = group: developmental, systemic / in life observation / body weight / fetal weight + developmental / developmental malformation / bone / incomplete ossification
[26] = group: maternal, systemic / in life observation / body weight / body weight gain + systemic / in life observation / food consumption / food consumption

## CCOC(=O)C1=NOC(c2ccccc2)(c2ccccc2)C1 [Isoxadifen-ethyl]
Rat [1]; [9]
  LEL: 120 mg/kg/day
  LOAEL: 120 mg/kg/day
  NEL: 15 mg/kg/day
  NOAEL: 15 mg/kg/day
Rat [1]; [10]
  LEL: 1000 mg/kg/day
  LOAEL: 1000 mg/kg/day
  NEL: 120 mg/kg/day
  NOAEL: 120 mg/kg/day
Rabbit [2]; [11]
  LEL: 500 mg/kg/day
  LOAEL: 500 mg/kg/day
  NEL: 50 mg/kg/day
  NOAEL: 50 mg/kg/day
Rabbit [2]; group: maternal, systemic / in life observation / mortality / mortality
  LOAEL: 500 mg/kg/day
Rabbit [2]; [12]
  LEL: 500 mg/kg/day
  NEL: 50 mg/kg/day
  NOAEL: 50 mg/kg/day

## Nc1nc(N)nc(Cl)n1 [2-Chloro-4,6-diamino-1,3,5-triazine]
Rat [3]; [13]
  LEL: 7.6 mg/kg/day
  LOAEL: 7.6 mg/kg/day
  NEL: 0.7 mg/kg/day
  NOAEL: 0.7 mg/kg/day
Rat [3]; [14]
  LOAEL: > 34.1 mg/kg/day
  NEL: 6.7 mg/kg/day
  NOAEL: ≥ 34.1 mg/kg/day
Rat [3]; group: systemic, systemic / clinical chemistry / protein / protein
  LEL: 16.7 mg/kg/day
Rat [4]; [15]
  LEL: 25 mg/kg/day
  LOAEL: 25 mg/kg/day
  NEL: 2.5 mg/kg/day
  NOAEL: 2.5 mg/kg/day
Rat [4]; [16]
  LEL: 75 mg/kg/day
  LOAEL: 75 mg/kg/day
Rat [4]; [17]
  NEL: 25 mg/kg/day
  NOAEL: 25 mg/kg/day

## O=c1[nH]c(=O)[nH]c(=O)[nH]1 [Cyanuric acid]
Rabbit [5]; group: developmental, developmental / developmental malformation / brain / hydrocephaly
  LOAEL: 500 mg/kg/day
Rabbit [5]; [18]
  LEL: 500 mg/kg/day
  NEL: 200 mg/kg/day
  NOAEL: 200 mg/kg/day
Rabbit [5]; [19]
  LEL: 500 mg/kg/day
  LOAEL: > 500 mg/kg/day
  NEL: 200 mg/kg/day
  NOAEL: ≥ 500 mg/kg/day

## C[C@H]1O[C@H](OC2[C@@H](O)[C@@H](O)C(O)[C@H](O)[C@H]2O)[C@@H](N)C[C@@H]1N=C(N)C(=O)O (some centres undefined) [Kasugamycin]
Rat [6]; [20]
  LEL: 70.3 mg/kg/day
  LOAEL: 70.3 mg/kg/day
  NEL: 13.7 mg/kg/day
  NOAEL: 13.7 mg/kg/day
Rat [6]; [21]
  LEL: 425 mg/kg/day
  LOAEL: 425 mg/kg/day
  NEL: 70.3 mg/kg/day
  NOAEL: 70.3 mg/kg/day

## [Li+].[O-]Cl [Lithium hypochlorite]
Rat [7]; [22]
  LOAEL: 500 mg/kg/day
  NEL: 10 mg/kg/day
  NOAEL: 100 mg/kg/day
Rat [7]; group: developmental, developmental / developmental malformation / bone / kinked + developmental / developmental malformation / bone / thread-like + developmental…
  LEL: 50 mg/kg/day
Rat [7]; [23]
  LEL: 500 mg/kg/day
  LOAEL: 500 mg/kg/day
  NEL: 100 mg/kg/day
  NOAEL: 100 mg/kg/day

## Cc1cc(C)cc(C)c1 [1,3,5-Trimethylbenzene]
Rat [8]; [24]
  LEL: 600 ppm
  LOAEL: 600 ppm
Rat [8]; [25]
  NEL: 300 ppm
  NOAEL: 300 ppm
Rat [8]; [26]
  LEL: 300 ppm
  LOAEL: 300 ppm
  NEL: 100 ppm
  NOAEL: 100 ppm
